Data taken from patent publication US20250049026A1, “BIOCIDAL COMPOSITIONS WITH HYDRONIUM ION SOURCES FOR BIOFILM CONTROL” (ECOLAB USA INC., priority 2020, published 2025).
Marks after values point to notes of the source that are not given here.

Tested on: Pseudomonas aeruginosa (ATCC 15442) biofilm
Experiment: Efficacy against biofilm, CDC Biofilm Reactor and Single Tube Method (ASTM E3161-18, ASTM E2871-19)
Format: cell-based
Details: for Average Log Reduction: 10 min exposure
Procedure: The efficacy against biofilm was performed as described in the standard test methods ASTM E3161-18 (Standard Practice for Preparing a Pseudomonas aeruginosa or Staphylococcus aureus Biofilm using the CDC Biofilm Reactor) and ASTM E2871-19 (Standard Test Method for Determining Disinfectant Efficacy Against Biofilm Grown in the CDC Biofilm Reactor Using the Single Tube Method). A Pseudomonas aeruginosa (ATCC 15442) biofilm was the organism used for determination of composition efficacy against biofilm on hard non-porous surfaces. Biofilm for composition efficacy was generated as outlined in ASTM E3161-18. A 10 uL sample of a thawed frozen stock culture was used to inoculate 10 mL of sterile 100 mg/L Tryptic Soy Broth (TSB) which was then allowed to incubate for 24±2 hours at 35±2° C. Following growth, a 1 mL sample of this initial culture was used to inoculate a CDC Biofilm Reactor containing borosilicate glass coupons and 500 mL of sterile 300 mg/L TSB. The reactor system was allowed to incubate at room temperature (i.e. 21±2° C.) for 24±2 hours with a baffle rotational speed of 125±5 RPM under Batch Phase as directed in ASTM E3161-18. Following Batch Phase growth, Continuous Flow Phase growth was initiated by continuous pumping of 100 mg/L TSB into the reactor system at an appropriate flow rate to ensure the test organism residence time of 30±2 minutes. The reactor system was allowed to incubate at room temperature (i.e. 21±2° C.) for 24±2 hours with a baffle rotational speed of 125±5 RPM under Continuous Flow Phase as directed in ASTM E3161-18. Following completion of the growth, biofilm test carriers were removed from the CDC Biofilm Reactor, rinsed in sterile buffer to remove any non-adhered cells and individual carriers were placed into sterile 50 mL conical tubes for composition treatment. Determination of compositional efficacy against Pseudomonas aeruginosa biofilm was performed as outlined in ASTM E2871-19. A 4 mL sample of each composition (or sterile buffer for control carriers) was pipetted into each corresponding tube containing a test carrier. Triplicate test carriers were analyzed per composition or control. Test and control carriers were allowed to expose for 10 minutes at room temperature (i.e. 21±2° C.). Following exposure, each carrier was appropriately neutralized with 36 mL of Neutralizing Broth. Neutralized carriers were vortex mixed and sonicated to remove/disaggregate the biofilm from the carrier surface as outlined in ASTM E2871-19. Disaggregated biofilm samples were serially diluted in sterile buffer and spread plated onto appropriate agar for determination of plate counts. Log reductions for each composition were determined by comparing the calculated average Log10 from the set of recovered control carriers to the calculated average Log10 from each set of recovered composition carriers. In addition to carrier control determination, an appropriate Neutralization Confirmation Control was performed for each composition to ensure that the Neutralizing Broth chosen appropriately neutralized the test solution.
The various combinations of biocides and hydronium ion (all from sulfuric acid) were evaluated at the use concentration (ppm biocide) pH and moles of hydronium in the use concentration as set forth in Table 2.

[1] = active 100 ppm, pH 2.15, hydronium ion 0.0071 M (sulfuric acid)
[2] = active 100 ppm, pH 2.50, hydronium ion 0.0032 M (sulfuric acid)
[3] = active 100 ppm, pH 3.00, hydronium ion 0.001 M (sulfuric acid)

CCCCCCCC(=O)O [Octanoic acid]
Average Log Reduction [1]: 4.28 log | Average Log Reduction [2]: 7.59 log | Average Log Reduction [3]: 2.19 log | Average Log Reduction (active 100 ppm, pH 6.43, hydronium ion 0.0000 M): 2.07 log | Average Log Reduction (active 200 ppm, pH 6.43, hydronium ion 0.0000 M): 2.15 log | Average Log Reduction (active 300 ppm, pH 6.43, hydronium ion 0.0000 M): 2.15 log | Average Log Reduction (active 400 ppm, pH 6.43, hydronium ion 0.0000 M): 2.15 log

CC(=O)OO [POAA, Peroxyacetic acid]
micro efficacy (220 ppm, without the hydronium ion): fails to provide sufficient micro efficacy | Average Log Reduction (active 110 ppm, pH 2.29, hydronium ion 0.0051 M (sulfuric acid)): 5.94 log | Average Log Reduction (active 220 ppm, pH 2.00, hydronium ion 0.01 M (sulfuric acid)): 4.45* log | Average Log Reduction (active 220 ppm, pH 2.29, hydronium ion 0.0051 M (sulfuric acid)): 8.70 log | Average Log Reduction (active 220 ppm, pH 2.30, hydronium ion 0.0050 M (sulfuric acid)): 2.42 log | Average Log Reduction (active 220 ppm, pH 2.45, hydronium ion 0.0035 M (sulfuric acid)): 2.11 log | Average Log Reduction (active 220 ppm, pH 2.50, hydronium ion 0.0032 M (sulfuric acid)): 2.15 log | Average Log Reduction (active 220 ppm, pH 2.98, hydronium ion 0.001 M (sulfuric acid)): 2.15 log | Average Log Reduction (active 220 ppm, pH 3.46, hydronium ion 0.00035 M (sulfuric acid)): 2.15 log | Average Log Reduction (active 220 ppm, pH 4.20, hydronium ion 0.000063 M [No hydronium ion source], room temperature): 2.15 log | Average Log Reduction (active 320 ppm, pH 3.45, hydronium ion 0.00035 M (sulfuric acid)): 2.41 log | Average Log Reduction (active 420 ppm, pH 3.46, hydronium ion 0.00035 M (sulfuric acid)): 2.41 log | Average Log Reduction (active 520 ppm, pH 3.44, hydronium ion 0.00035 M (sulfuric acid)): 2.41 log

CCCCCCCC(=O)OO [POOA, Peroxyoctanoic acid]
Average Log Reduction [1]: 8.43 log | Average Log Reduction [2]: 7.24 log | Average Log Reduction [3]: 2.19 log | Average Log Reduction (active 100 ppm, pH 5.45, hydronium ion 0.0000 M): 1.95 log

Linear alkylbenzene sulfonate [LAS]
Average Log Reduction (active 1000 ppm, pH 2.15, hydronium ion 0.0071 M (sulfuric acid)): 5.74 log | Average Log Reduction (active 1000 ppm, pH 3.02, hydronium ion 0.00095 M (sulfuric acid)): 2.19 log | Average Log Reduction (active 1000 ppm, pH 7.48, hydronium ion 0.0000 M): 2.07 log | Average Log Reduction (active 2000 ppm, pH 7.48, hydronium ion 0.0000 M): 2.41 log | Average Log Reduction (active 3000 ppm, pH 7.46, hydronium ion 0.0000 M): 2.41 log | Average Log Reduction (active 4000 ppm, pH 7.48, hydronium ion 0.0000 M): 2.41 log
